{
  "source": "patent US8129365B2",
  "about": "“Water-soluble, fluorescent compounds for detection of potassium ions” (The Regents of the University of California, priority 2005, dated 2012)",
  "key": {"[1]": {"test_system": "brain cortex ECS", "assay": "TAC-Red [K^+]o measurements in brain cortex (spreading depression)", "type": "in vivo, mice", "conditions": "freshly cut brain slices, 5 min transdural loading with about 50 μM", "protocol": "TAC-Red [K^+]o measurements in brain cortex. Wildtype and AQP4 null mice in a CD1 genetic background (30-35 g body weight/age 10-12 weeks) were used (described in Ma et al. Ma et al. J. Clin. Invest. 100, 957-962 (1997)). These mice are phenotypically normal at baseline and have normal brain architecture; however they manifest altered brain swelling in response to cytotoxic and vasogenic forms of edema. Mice were anesthetized with 2,2,2-tribromoethanol (125 mg/kg, intraperitoneal (ip)) and the head was immobilized in a standard mouse stereotactic frame. Body temperature was maintained at 36-37° C. using a heating pad. The skull was exposed by a midline skin incision. A 2.7 mm diameter circular area of the thin, semi-translucent skull bone located 0.5 mm lateral to the midline and 1 mm posterior to the bregma was removed using a microdrill under microscope to expose intact dura with underlying brain. […]\nFluorescence was measured using a 1.6× objective lens (working distance 24 mm, numerical aperture 0.21), and custom filter set for TAC-Red (HQ, Chroma). […] Fluorescence was imaged using a 14-bit 1024×1024 pixel cooled CCD camera (CoolSnap HQ, Photometrics). […]\nImage analysis. […] Half-times (t1/2) for the increasing and decreasing phases of TAC-Red fluorescence were determined by exponential regression analysis. […]"}, "[2]": {"assay": "Water solubility", "type": "physicochemical"}, "[3]": {"assay": "Fluorescence titrations of TAC-Red (spectroscopic analysis)", "type": "physicochemical", "protocol": "The TAC-Red compound was subjected to spectroscopic analysis. Fluorescence measurements were carried out by standard procedures using a FluoroMax-3 fluorimeter. Fluorescence titrations were carried out at 540 nm excitation and 574 nm emission wavelengths using aqueous solution containing about 7 μM at pH 7.0 (buffered with 5 mM HEPES) unless titrated with NaOH/HCl to other pH.\nSpectra in FIG. 1, Panel b were obtained using balanced KCl/choline Cl to keep ionic strength constant at 300 mM. The titration in FIG. 1, panel c was done by adding indicated NaCl/KCl from concentrated stock solutions. The data in FIG. 1, panel d were obtained at constant ionic strength (300 mM) using NaCl or choline Cl to balance the KCl."}, "[4]": {"test_system": "cell viability or growth", "assay": "Cell viability or growth", "type": "cell-based", "from_the_text": "(§1) TAC-Red fluorescence was not sensitive to divalent cations (Ca^++ or Mg^++) or various anions, or to pH in the range 6-8 (FIG. 1, panel e)."}, "[5]": {"assay": "Stop-flow measurement of TAC-Red fluorescence response", "type": "physicochemical", "conditions": "K^+ increased from 0 to 5 mM", "protocol": "The TAC-Red fluorescence response was rapid when K^+ was increased from 0 to 5 mM in a stop-flow measurement (FIG. 1, panel c, inset), with greater than 90% of the fluorescence increase occurring in under 1 ms."}, "[6]": {"test_system": "Fisher rat thyroid epithelial cell monolayers", "assay": "Transport across epithelial cell monolayers", "type": "in vitro ADME", "from_the_text": "as §1"}, "[7]": {"test_system": "CHO-K1 cells", "assay": "K^+ efflux in CHO cells measured by TAC-Red fluorescence, fluorescence microscopy", "type": "cell-based", "conditions": "10 μM pre-incubation, epifluorescence microscopy", "protocol": "(§2) TAC-Red as an indicator for measurement of K^+ channel function for high-throughput screening applications. CHO-K1 cells (ATCC CCL-61) were cultured in Ham's F12 media supplemented with 10% fetal bovine serum, 100 U/ml penicillin and 100 μg/ml streptomycin at 37° C. in a 5% CO2/95% air atmosphere and used at ˜90% confluence. For measurements using epifluorescence microscopy cells were grown until reaching confluency on 18-mm diameter round glass coverslips. For fluorescence plate reader assays cells were cultured on Costar 96-well black plates with a clear flat bottom and used when just confluent. […]\nFluorescence microscopy: For most experiments cells on coverslips were incubated in 1 ml high K^+ buffer for 2 min prior to experiments. […] The washed cells were immediately placed cell-side down on the slide and fluorescence measured continuously. TAC-Red fluorescence was excited at 545±30 nm and detected through a 610±75 nm filter (570 nm dichroic) using a long working distance 25× air objective lens.\nTAC-Red was used as an indicator of extracellular K^+, such that the rate of initial K^+ efflux into a 0 K^+ buffer could be measured. […]"}, "[8]": {"test_system": "CHO-K1 cells", "assay": "K^+ efflux measured by TAC-Red fluorescence, plate reader assay", "type": "cell-based", "conditions": "10 μM preincubation", "protocol": "as §2\nPlate reader assay: Measurements were done using a Fluostar plate reader (BMG LabTechnologies) with syringe pump for automated solution addition. […] The plate was loaded onto plate reader and after 6 s of fluorescence measurement 30 μl of TAC-Red (150 μM) in 0 K^+ buffer was added via syringe pump. TAC-Red fluorescence was excited using an HQ545/30 filter (Chroma) and emitted fluorescence was detected through a HQ585/30 filter."}},
  "note": "“Also recorded” adds a separate entry of the source.",
  "data": [
    {"molecule": "COCCOc1cc(-c2c3ccc(=[N+](C)C)cc-3oc3cc(N(C)C)ccc23)ccc1N1CCOc2cc(C)ccc2N2CCOCCOCCN(CCOCCOCC2)c2ccc(C)cc2OCC1.[Cl-]", "note": "[TAC-Red, {6-Dimethylamino-9-[4-(6,7,9,10,12,13,20,21,23,24-decahydro-2,17-dimethyl-5,14-(ethanoxyethanoxyethano)-5H,14H,22H-dibenzo[h,q][1,4,10,16,7,13,19]tetraoxatriazacyclo-heneicosin-22-yl)-3-(2-methoxyethoxy)phenyl]xanthen-3-ylidene}dimethylammonium chloride]", "values": [
      {"measurement": "Depth of TAC-Red staining beneath the brain surface", "setting": "[1]", "result": "> 500", "unit": "μm"},
      {"measurement": "Water solubility", "setting": "[2]", "result": "water soluble"},
      {"measurement": "Effect of Na^+ on TAC-Red fluorescence vs. K^+", "setting": "[3]; 150 mM Na^+ in place of 150 mM choline^+", "result": "did not affect"},
      {"measurement": "Effect of Na^+ on TAC-Red fluorescence", "setting": "[3]; 50 and 150 mM Na^+", "result": "increased slightly"},
      {"measurement": "Sensitivity of fluorescence to divalent cations", "setting": "[3]; Ca^++ or Mg^++", "result": "not sensitive"},
      {"measurement": "TAC-Red fluorescence increase", "setting": "[3]; K^+ concentration increasing from 0-200 mM, 540 nm excitation, 574 nm emission, pH 7.0", "result": "more than 23 fold"},
      {"measurement": "K^+ sensitivity of fluorescence", "setting": "[3]; K^+ in the range 0 to >100 mM", "result": "highly sensitive"},
      {"measurement": "K^+ sensitivity of fluorescence", "setting": "[3]; K^+ range 0-40 mM expected in the brain ECS", "result": "excellent K^+ sensitivity"},
      {"measurement": "K^+-to-Na^+ selectivity ratio", "setting": "[3]; at 50 mM", "result": "about 37"},
      {"measurement": "Specificity in titrations with monovalent cations", "setting": "[3]; monovalent cations", "result": "specificity for K^+, Rb^+ and Cs^+ over Na^+ and Li^+"},
      {"measurement": "Sensitivity of fluorescence to pH", "setting": "[3]; pH in the range 6-8", "result": "not sensitive"},
      {"measurement": "Sensitivity of fluorescence to various anions", "setting": "[3]; various anions", "result": "not sensitive"},
      {"measurement": "Effect on cell viability or growth", "setting": "[4]", "result": "did not affect"},
      {"measurement": "Share of fluorescence increase occurring in under 1 ms", "setting": "[5]", "result": "greater than 90%"},
      {"measurement": "Membrane permeability", "setting": "[6]", "result": "membrane impermeant; also recorded: membrane-impermeable"},
      {"measurement": "Transport across cell monolayers", "setting": "[6]; in 6 hours", "result": "< 1", "unit": "%"}
    ]},
    {"molecule": "CC(C)[C@@H]1NC(=O)[C@H](C)OC(=O)[C@@H](C(C)C)NC(=O)[C@@H](C(C)C)OC(=O)[C@H](C(C)C)NC(=O)[C@H](C)OC(=O)[C@@H](C(C)C)NC(=O)[C@@H](C(C)C)OC(=O)[C@H](C(C)C)NC(=O)[C@H](C)OC(=O)[C@@H](C(C)C)NC(=O)[C@@H](C(C)C)OC1=O", "note": "[valinomycin]", "values": [
      {"measurement": "Effect on K^+ efflux", "setting": "[7]", "result": "increased K^+ efflux"},
      {"measurement": "Effect on K^+ efflux", "setting": "[8]", "result": "increased K^+ efflux"}
    ]}
  ]
}
